This experiment concerns aldose reductase. Briefly: galactitol (dulcitol) accumulation in lens, sciatic nerve and diaphragm of galactosemic rats. The following applies: 4 days; for % Lowering dulcitol accumulation IN VIVO, D: diaphragm; for % Lowering dulcitol accumulation IN VIVO, L: lens. The format is in vivo, rat (Sprague-Dawley, male). An excerpt:
Such experiments are exemplified hereinbelow after the listing of the following general comments pertaining to these experiments: (a) Four or more groups of six male rats, 50-70 g, Sprague-Dawley strain, were used. The first group, the control group, was fed a mixture of laboratory chow (rodent Laboratory Chow, Purina) and glucose at 20% (w/w %) concentration. […] The test compound was either admixed to the diet or administered by gavage. In experiments involving compound administration in the diet, the average dose administered was calculated from the actual food intake of the animals in each group. The concentration of galactose in the diet of the treated groups was the same as that for the untreated galactosemic group. (b) After four days, the animals were killed by decapitation. The eyeballs were removed and punctured with a razor blade; the freed lenses were rolled gently on filter paper and weighed. The sciatic nerves were dissected as completely as possible and weighed. Both tissues when frozen can be kept up to two weeks before being analyzed for galactitol. […] Only two minor reagent changes were made: (a) The rinsing mixture was an aqueous 5% (w/v) trichloroacetic acid solution and (b) the stock solution was prepared by dissolving 25 mg of dulcitol in 100 mL of an aqueous trichloroacetic acid solution. [N.B.: For each experiment the average value found in the tissue from rats fed the glucose diet was subtracted from the individual values found in the corresponding tissue in galactose-fed rats to obtain the amount of polyol accumulated.] […] In the present case the procedure of Hayman and Kinoshita was modified in that the final chromatography step was omitted in the preparation of the enzyme from bovine lens. […] The figures under L, N, and D represent the percentage decrease of galactitol accumulation in the tissues of the lens, sciatic nerve, and diaphragm, respectively, for treated rats as compared to untreated rats.

These results are taken from patent publication US4925968A, “N-acyl-N-naphthoylglycines as aldose reductase inhibitors” (American Home Products Corporation, priority 1989, dated 1990).

As to `CCOC(=O)N(CC(=O)O)C(=O)c1cccc2c(C(F)(F)F)c(OC)ccc12` [Example 1, N-[[6-Methoxy-5-(trifluoromethyl)-1-naphthalenyl]carbonyl]-N-[(ethoxy)carbonyl]glycine], for the setting “57 mg/kg”, the “% Lowering dulcitol accumulation IN VIVO, D” value was 70% and the “% Lowering dulcitol accumulation IN VIVO, L” value came out at 19%. Moreover, for the setting “97 mg/kg”, the “% Lowering dulcitol accumulation IN VIVO, D” value was determined as 83% and the “% Lowering dulcitol accumulation IN VIVO, L” value turned out to be 12%.

For the compound `COC(=O)N(CC(=O)O)C(=O)c1cccc2c(C(F)(F)F)c(OC)ccc12` [Example 2, N-[[6-Methoxy-5-(trifluoromethyl)-1-naphthalenyl]-carbonyl]-N-[(methoxy)carbonyl]glycine], for the setting “48 mg/kg”, the “% Lowering dulcitol accumulation IN VIVO, D” value is recorded as 54% and the “% Lowering dulcitol accumulation IN VIVO, L” value is recorded as “N.S”.

Take `CCCOC(=O)N(CC(=O)O)C(=O)c1cccc2c(C(F)(F)F)c(OC)ccc12` [Example 3]: under “48 mg/kg”, the “% Lowering dulcitol accumulation IN VIVO, D” value is “N.S” and the “% Lowering dulcitol accumulation IN VIVO, L” value is recorded as “N.S”.

Regarding `COc1ccc2c(C(=O)N(CC(=O)O)C(=O)OC(C)C)cccc2c1C(F)(F)F` [Example 4], where the note is “dose (mg/kg) printed as N.S.”, the “% Lowering dulcitol accumulation IN VIVO, D” value is listed as “N.S” and the “% Lowering dulcitol accumulation IN VIVO, L” value is “N.S”.

For `COc1ccc2c(C(=O)N(CC(=O)O)C(=O)OCC(C)(C)C)cccc2c1C(F)(F)F` [Example 5], for the setting “105 mg/kg”, the “% Lowering dulcitol accumulation IN VIVO, D” value is given as “N.S” and the “% Lowering dulcitol accumulation IN VIVO, L” value is “N.S”.

Regarding `COc1ccc2c(C(=O)N(CC(=O)O)C(=O)OCc3ccccc3)cccc2c1C(F)(F)F` [Example 6], where the note is “67 mg/kg”, the “% Lowering dulcitol accumulation IN VIVO, D” value was “N.S” and the “% Lowering dulcitol accumulation IN VIVO, L” value is recorded as “N.S”.

Turning to `COc1ccc2c(C(=O)N(CC(=O)O)C(=O)OCc3ccc(Cl)c([N+](=O)[O-])c3)cccc2c1C(F)(F)F` [Example 7], for the setting “107 mg/kg”, the “% Lowering dulcitol accumulation IN VIVO, D” value is on record as “N.S” and the “% Lowering dulcitol accumulation IN VIVO, L” value is on record as “N.S”.

`COc1ccc2c(C(=O)N(C=O)CC(=O)O)cccc2c1C(F)(F)F` [Example 8, N-Formyl-N-[[6-methoxy-5-(trifluoromethyl)-1-naphthalenyl]carbonyl]glycine]: where the note is “107 mg/kg”, the “% Lowering dulcitol accumulation IN VIVO, D” value turned out to be 82% and the “% Lowering dulcitol accumulation IN VIVO, L” value is on record as 13%.

Take `COc1ccc2c(C(=O)N(CC(=O)O)C(C)=O)cccc2c1C(F)(F)F` [Example 9]: for the setting “100 mg/kg”, the “% Lowering dulcitol accumulation IN VIVO, D” value stood at 39% and the “% Lowering dulcitol accumulation IN VIVO, L” value is “N.S”.

For the compound `COc1ccc2c(C(=O)N(CC(=O)O)C(=O)c3ccccc3)cccc2c1C(F)(F)F` [Example 10, N-Benzoyl-N-[[6-methoxy-5-(trifluoromethyl)-1-naphthalenyl]carbonyl]glycine], for the setting “50 mg/kg”, the “% Lowering dulcitol accumulation IN VIVO, D” value is “N.S” and the “% Lowering dulcitol accumulation IN VIVO, L” value was “N.S”.

Take `COC(=O)N(CC(=O)O)C(=O)c1cccc2c(Br)cccc12` [Example 12]: for the setting “102 mg/kg”, the “% Lowering dulcitol accumulation IN VIVO, D” value is reported as 24% and the “% Lowering dulcitol accumulation IN VIVO, L” value is listed as “N.S”.

As for `O=CN(CC(=O)O)C(=O)c1cccc2c(Br)cccc12` [Example 14], for the setting “104 mg/kg”, the “% Lowering dulcitol accumulation IN VIVO, D” value is on record as 17% and the “% Lowering dulcitol accumulation IN VIVO, L” value is listed as “N.S”.

Consider `CC(=O)N(CC(=O)O)C(=O)c1cccc2c(Br)cccc12` [Example 15], for which, under “112 mg/kg”, the “% Lowering dulcitol accumulation IN VIVO, D” value is listed as “N.S” and the “% Lowering dulcitol accumulation IN VIVO, L” value is given as “N.S”.

In the case of `O=C(O)CN(C(=O)c1ccccc1)C(=O)c1cccc2c(Br)cccc12` [Example 16], for the setting “111 mg/kg”, the “% Lowering dulcitol accumulation IN VIVO, D” value is recorded as “N.S” and the “% Lowering dulcitol accumulation IN VIVO, L” value was “N.S”.
